Assays:
[1] = target: T1, D-amino-acid oxidase (Homo sapiens, UniProt P14920); assay: Inhibition of recombinant full length human DAO preincubated with compound for 20 mins measured after 4 hrs by Amplex red and horseradish peroxidase based fluorescence assay
[2] = Efflux ratio of apparent permeability across basolateral to apical side over apical to basolateral side in MDCK-MDR1 cells; details: dog
[3] = Apparent permeability across apical to basolateral membrane in MDCK-MDR1 cells by LC-MS/MS analysis; details: dog
[4] = target: T1, D-amino-acid oxidase; assay: Inhibition of full length human DAO transfected in CHO-K1 cells incubated for 30 mins by Amplex red and horseradish peroxidase based fluorescence assay; assay type: cell-based
[5] = target: D-amino-acid oxidase (Mus musculus, UniProt P18894); assay: Inhibition of full length mouse DAO transfected with CHO-K1 cells incubated for 30 mins by Amplex red and horseradish peroxidase based fluorescence assay; assay type: cell-based
[6] = Brain to plasma permeability coefficient, Kp in C57Bl/6 mouse 2 mg/kg, po or 0.5 mg/kg,iv by LC-MS-MS analysis; assay type: ADME, organism-based; details: mouse, brain, po, 2 mg/kg, BLD = below limit of detection
[7] = Oral bioavailability in C57/BL6 mouse at 2 mg/kg by LC-MS-MS analysis; assay type: ADME, organism-based; details: in vivo
[8] = Unbound brain-to-plasma concentration ratio in C57Bl/6 mouse at 2 mg/kg, po or 0.5 mg/kg,iv by LC-MS-MS analysis; assay type: ADME, organism-based; details: mouse, brain, po, 2 mg/kg, BLD = below limit of detection
[9] = Unbound drug concentration in C57Bl/6 mouse plasma at 2 mg/kg, po or 0.5 mg/kg,iv by LC-MS-MS analysis; assay type: ADME, organism-based; details: mouse, in vivo, po, 2 mg/kg, BLD = below limit of detection
[10] = Unbound drug concentration in C57Bl/6 mouse brain at 2 mg/kg, po or 0.5 mg/kg,iv by LC-MS-MS analysis; assay type: ADME, organism-based; details: mouse, in vivo, po, 2 mg/kg, BLD = below limit of detection
[11] = Volume of distribution at steady state in C57/BL6 mouse at 2 mg/kg, po or 0.5 mg/kg,iv by LC-MS-MS analysis; assay type: ADME, organism-based; details: in vivo
[12] = Dose normalized AUC in C57/BL6 mouse at 2 mg/kg, po by LC-MS-MS analysis; assay type: ADME, organism-based; details: in vivo

T1 sequence (P14920 whole entry): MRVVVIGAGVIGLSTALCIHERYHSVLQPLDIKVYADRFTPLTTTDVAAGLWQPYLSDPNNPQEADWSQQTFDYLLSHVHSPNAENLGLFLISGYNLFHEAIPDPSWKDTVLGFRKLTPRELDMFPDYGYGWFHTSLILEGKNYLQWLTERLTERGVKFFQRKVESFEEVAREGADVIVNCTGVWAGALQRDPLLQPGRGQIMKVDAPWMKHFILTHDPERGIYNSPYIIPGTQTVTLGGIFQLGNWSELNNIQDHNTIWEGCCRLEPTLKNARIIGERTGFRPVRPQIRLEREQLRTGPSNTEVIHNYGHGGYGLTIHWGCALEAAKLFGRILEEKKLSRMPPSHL
Sequence of D-amino-acid oxidase (Mus musculus, UniProt P18894) (P18894 whole entry): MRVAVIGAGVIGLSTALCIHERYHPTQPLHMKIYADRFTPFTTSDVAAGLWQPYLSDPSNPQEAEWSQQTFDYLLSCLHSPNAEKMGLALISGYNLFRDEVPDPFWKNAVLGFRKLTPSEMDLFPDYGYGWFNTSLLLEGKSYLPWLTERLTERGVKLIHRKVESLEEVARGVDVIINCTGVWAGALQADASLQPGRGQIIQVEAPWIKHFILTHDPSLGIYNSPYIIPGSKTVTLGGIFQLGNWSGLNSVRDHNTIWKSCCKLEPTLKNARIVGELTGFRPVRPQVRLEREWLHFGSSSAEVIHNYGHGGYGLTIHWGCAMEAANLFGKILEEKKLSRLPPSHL

| IC50 [1] | EC50 [4] | EC50 [5] | Compound | also measured |
| --- | --- | --- | --- | --- |
| 3900 nM | – | – | Cc1[nH]c(=O)c(=O)[nH]c1CCc1ccc(C(F)(F)F)cc1 | efflux ratio [2]: 2.4; Papp A→B [3]: 4.8 ×10⁻⁶ cm/s |
| 150 nM | 400 nM | 510 nM | O=c1[nH]cc(SCc2ccc(Cl)cc2)[nH]c1=O | – |
| – | – | 2300 nM | CS(=O)(=O)c1ccc(SCc2c[nH]c(=O)c(=O)[nH]2)cc1 | – |
| 440 nM | 3800 nM | – | N#Cc1cccc(CSc2c[nH]c(=O)c(=O)[nH]2)c1 | – |
| 80 nM | 710 nM | 790 nM | O=c1[nH]cc(CSc2ccc(S(F)(F)(F)(F)F)cc2)[nH]c1=O | – |
| 670 nM | 8200 nM | – | O=c1[nH]cc(CCc2ccc(OC(F)F)nc2)[nH]c1=O | – |
| – | – | 290 nM | O=c1[nH]cc([C@@H]2COc3cc(C(F)F)ccc3S2)[nH]c1=O | – |
| 580 nM | 8400 nM | – | O=c1[nH]cc(CCc2ccc3ncccc3c2)[nH]c1=O | – |
| 5800 nM | 1800 nM | 1500 nM | N#Cc1ccc(CCc2c[nH]c(=O)c(=O)[nH]2)cc1 | efflux ratio [2]: 0.6; Papp A→B [3]: 3 ×10⁻⁶ cm/s |
| 2500 nM | – | – | O=c1[nH]cc(CCc2cc(Cl)cc(Cl)c2)[nH]c1=O | – |
| 43 nM | 250 nM | 310 nM | N#Cc1ccc(CSc2c[nH]c(=O)c(=O)[nH]2)cc1 | – |
| 406 nM | 1760 nM | 720 nM | O=c1[nH]cc(C2COc3ccccc3S2)[nH]c1=O (racemic) | – |
| 25 nM | 270 nM | 1200 nM | CS(=O)(=O)c1ccc2c(c1)OC[C@@H](c1c[nH]c(=O)c(=O)[nH]1)S2 | – |
| – | – | – | O=c1[nH]c(=O)n(O)cc1CCc1ccc(Cl)cc1 | Kp [6]: Bld; bioavailability [7]: 9%; K(p,uu,brain) [8]: Bld; Fu [9]: Bld; Fu [10]: Bld; Vdss [11]: 1.9 L/kg; AUC/dose [12]: 13.6 ng·h/mL; Papp A→B [3]: 24 ×10⁻⁶ cm/s |
| 180 nM | 1900 nM | – | N#Cc1ccc(CCc2c[nH]c(=O)c(=O)[nH]2)cc1F | efflux ratio [2]: 0.5; Papp A→B [3]: 3.3 ×10⁻⁶ cm/s |
| 250 nM | 540 nM | 340 nM | N#Cc1[nH]c(=O)c(=O)[nH]c1CCc1ccc(C(F)(F)F)cc1 | – |
| 6200 nM | – | – | O=c1[nH]cc(CCc2ccccc2Cl)[nH]c1=O | – |
| 51 nM | 390 nM | 1500 nM | C[C@@]1(c2c[nH]c(=O)c(=O)[nH]2)COc2cc(S(C)(=O)=O)ccc2S1 | – |
| – | – | 680 nM | N#Cc1ccc(CSc2c[nH]c(=O)c(=O)[nH]2)cc1F | – |
| – | – | – | O=c1[nH]c(=O)n(O)cc1CCc1ccccc1 | Papp A→B [3]: 15 ×10⁻⁶ cm/s |
| 300 nM | 810 nM | – | O=c1[nH]cc(SCc2ccc(F)c(F)c2)[nH]c1=O | – |
| 1500 nM | 500 nM | – | O=c1[nH]c(Cl)c(CCc2ccc(C(F)(F)F)cc2)[nH]c1=O | – |

| IC50 [1] | EC50 [4] | EC50 [5] | Compound | also measured |
| --- | --- | --- | --- | --- |
| 190 nM | 3500 nM | – | O=c1[nH]cc(CCc2cccc(Cl)c2)[nH]c1=O | efflux ratio [2]: 0.9; Papp A→B [3]: 6.8 ×10⁻⁶ cm/s |
| 20 nM | 630 nM | 780 nM | N#Cc1ccc2c(c1)OC[C@@H](c1c[nH]c(=O)c(=O)[nH]1)S2 | efflux ratio [2]: 3.1; Papp A→B [3]: 3.1 ×10⁻⁶ cm/s |
| 340 nM | – | – | O=c1[nH]cc(CCc2ccccc2)[nH]c1=O | efflux ratio [2]: 0.4; Papp A→B [3]: 4 ×10⁻⁶ cm/s |
| – | – | 260 nM | C[C@@]1(c2c[nH]c(=O)c(=O)[nH]2)COc2cc(C(F)(F)F)ccc2S1 | – |
| 320 nM | – | – | COc1ccc(CCc2c[nH]c(=O)c(=O)[nH]2)cc1 | – |
| 21 nM | 140 nM | 220 nM | O=c1[nH]cc([C@@H]2COc3cc(Cl)ccc3S2)[nH]c1=O | – |
| 320 nM | – | – | O=c1[nH]cc(CCc2ccc(Cl)cc2)[nH]c1=O | – |
| 640 nM | – | 4300 nM | Cc1n[nH]c2cc(CCc3c[nH]c(=O)c(=O)[nH]3)ccc12 | – |
| 46 nM | 440 nM | 970 nM | N#Cc1ccc(SCc2c[nH]c(=O)c(=O)[nH]2)cc1F | – |
| 20 nM | 240 nM | 120 nM | C[C@@]1(c2c[nH]c(=O)c(=O)[nH]2)COc2cc(C#N)ccc2S1 | – |
| 87 nM | 1100 nM | 1400 nM | O=c1[nH]cc(CSc2cnc3cc(Cl)ccc3c2)[nH]c1=O | – |
| 130 nM | 680 nM | 390 nM | O=c1[nH]cc(CSc2ccc(Cl)cc2)[nH]c1=O | – |
| 25 nM | 290 nM | 430 nM | O=c1[nH]cc(C2COc3cc(C(F)(F)F)ccc3S2)[nH]c1=O (stereo not drawn) | – |
| 250 nM | 1100 nM | 590 nM | O=c1[nH]cc(SCc2ccc(C(F)(F)F)nc2)[nH]c1=O | efflux ratio [2]: 0.4; Papp A→B [3]: 2.4 ×10⁻⁶ cm/s |
| 3300 nM | – | – | O=c1[nH]cc(Cc2ccc(Cl)cc2)[nH]c1=O | – |
| 70 nM | 450 nM | 590 nM | O=c1[nH]cc(SCc2ccc(C(F)F)cc2)[nH]c1=O | – |
| – | – | 4.2 nM | O=c1[nH]nc(Cc2ccc(Cl)cc2)cc1O | – |
| 320 nM | 2900 nM | 1800 nM | O=c1[nH]cc(CCc2ccc(-c3cc(O)n[nH]3)c(F)c2)[nH]c1=O | efflux ratio [2]: 0.1; Papp A→B [3]: 21 ×10⁻⁶ cm/s |
| 90 nM | 440 nM | 540 nM | CS(=O)(=O)c1ccc(CSc2c[nH]c(=O)c(=O)[nH]2)cc1 | – |
| 94 nM | 560 nM | 540 nM | O=c1[nH]cc([C@@H]2COc3cc(F)ccc3S2)[nH]c1=O | – |
| – | – | 500 nM | O=c1[nH]cc(SCc2ccc(S(F)(F)(F)(F)F)cc2)[nH]c1=O | – |
| – | – | 250 nM | CC1(c2c[nH]c(=O)c(=O)[nH]2)COc2ccccc2S1 (racemic) | – |

| Compound | IC50 [1] | EC50 [4] | EC50 [5] | also measured |
| --- | --- | --- | --- | --- |
| C[C@@]1(c2c[nH]c(=O)c(=O)[nH]2)COc2cc(Cl)ccc2S1 | – | – | 100 nM | – |
| O=c1[nH]cc(SCc2ccc(C(F)(F)F)cc2)[nH]c1=O | – | – | 240 nM | – |
| N#Cc1ccc(SCc2c[nH]c(=O)c(=O)[nH]2)cc1Cl | – | – | 560 nM | – |

Reference: ChEMBL document CHEMBL5154896, “Discovery of a Novel Class of d-Amino Acid Oxidase Inhibitors Using the Schrödinger Computational Platform” (J Med Chem, 2022)
